Broadly, the viability is a read-out of living cells in per cent, often relative to untreated cells.

The text below walks through data of publication PMC12040169 (PLOS Biology, 2025).

This series can be described thus: in vitro. To be noted: human, hela cells, % viability.

For the compound `CN(C)c1ccc(Nc2cc(-c3cccc4ccccc34)ncn2)cc1` [CBK037835], the viability at 28.5 h, 10 µM was determined as 46.8%.
The result for `O=C(Cn1c2ccccc2c2ccccc21)Sc1nc2ccccc2[nH]1` [CBK263788] reads 103%; that for `COc1ccc2[nH]c3c(c2c1)CCNC31CCN(Cc2ccc(S(C)(=O)=O)cc2)CC1` [CBK039753], 88.8%.
As for `COc1cccc(C(=O)N2CCCC2c2cc3cccnc3[nH]2)c1` (stereo not drawn) [CBK285082], the viability at 28.5 h, 10 µM came out at 96.4%.
Consider `Cn1c(=O)c2c(ncn2CC(=O)Nc2ccccc2C#N)n(C)c1=O` [CBK133465], for which the viability at 28.5 h, 10 µM is 89.6%.
For the compound `COCCN(C)c1nc2c(c(=O)[nH]1)Cc1ccccc1OC2` [CBK306737], the viability at 28.5 h, 10 µM is 105%.
On to `Nc1ccc(-c2cn3ccnc3c(NCC3CC3)n2)cc1` [CBK066677], for which the viability at 28.5 h, 10 µM is 101%.
The result for `CCN(CC)C(=O)CN1CCN(c2nccnc2OCCN2C(=O)CCC2=O)CC1` [CBK084297] reads 102%; that for `O=C(CSc1ccc(Cl)cc1)Nc1cc(Cl)ccc1C(=O)O` [CBK264217], 115%.
Under `CCc1ccccc1NC(=O)Cn1ncnc1Sc1nc2c(c(=O)n(C)c(=O)n2C)n1C` [CBK265963] stands 87.6%; under `CCC(=O)Nc1ccc(-c2csc(N3CCCC(C)C3)n2)cc1` (stereo not drawn) [CBK306478], 83.3%; under `Cc1ccc(C2(C(=O)NC(C)c3ccccn3)CCOCC2)cc1` (stereo not drawn) [CBK281903], 90.5%.
The result for `CC(C)Nc1nccnc1SCc1ccc(Cl)c(Cl)c1` [CBK103657] reads 89.8%.
Regarding `Cc1cc(C)nc(NC(=O)c2c(Cl)cccc2Cl)n1` [CBK058401], the viability at 28.5 h, 10 µM came out at 99.9%.
Under `Cc1ccc(C(=O)N2CCN(C)CC2)c(N2CCOCC2)n1` [CBK106199] stands 100%; under `O=C(NCc1ccccc1)c1ccccc1NC(=O)C1CCCCC1C(=O)O` (stereo not drawn) [CBK269283], 92%.
The result for `COc1ccc(C(=O)N2CCN(C)CC2)cc1Nc1cncc(-c2cc3ccccc3o2)n1` [CBK155266T] reads 89.9%; that for `CCN1CCC2(CCC1=O)CN(Cc1cncn1CC(C)C)CCN2C` (stereo not drawn) [CBK306947], 96%.
The result for `COc1ccc(OC)c(-c2cc(C(=O)O)c(C)s2)c1` [CBK049922] reads 96.5%; that for `O=C(O)c1ccc(/C=N/Nc2cccc3cccnc23)cc1` [CBK262372], 74.4%.
On to `CC(C)c1noc([C@@H]2Cc3[nH]cnc3CN2C(=O)Nc2ccccc2)n1` [CBK288969], for which the viability at 28.5 h, 10 µM turned out to be 86.5%.
As for `CCOC(=O)CC(=O)COc1noc2nc(C)cc(C)c12` [CBK269595], the viability at 28.5 h, 10 µM came out at 98.2%.
Under `O=C(O)c1cc(S(=O)(=O)Nc2cccc(-c3cnco3)c2)c(F)cc1Cl` [CBK067126] stands 90.5%; under `O=C(Nc1ccc(Br)cc1C(=O)O)c1cccc(C(=O)Nc2ccc(Br)cc2C(=O)O)c1` [CBK261395], 90.5%; under `NCCC(O)(P(=O)(O)O)P(=O)(O)O` [CBK260913], 97.6%.
Under `CC(=O)N1CCN(c2nnc(-c3ccccc3)o2)CC1` [CBK170332] stands 87.9%; under `O=C(CN1CCOCC1)N1CCc2ccccc21` [CBK200271], 96.3%; under `O=C(Nc1ccccc1)c1cc2sccc2s1` [CBK057696], 87.9%.
The result for `CCOC(=O)c1cccnc1-c1cccc(C(N)=O)c1` [CBK149239] reads 96%; that for `O=C(c1sccc1Br)N1CCN(Cc2ccc3c(c2)OCO3)CC1` [CBK074730], 100%.
For the compound `Cc1cc(O)cc(C2CCCN(C(=O)c3ccc(F)c(F)c3)C2)n1` (stereo not drawn) [CBK283406], the viability at 28.5 h, 10 µM is 105%.
Under `COc1ccccc1CNc1ccc(C(=O)O)cc1` [CBK078187] stands 106%.
Under `O=C(CN1CCn2ccnc2C1)N(Cc1ccccc1F)C1CC1` [CBK303995] stands 89.6%; under `O=C(CSc1nnc(-c2ccncc2)n1-c1ccccc1)c1ccc(Br)cc1` [CBK266758], 93.9%.
The result for `Cn1ccnc1Sc1nc2ccccc2nc1C(F)(F)F` [CBK093778] reads 106%; that for `COc1ccccc1-c1nccnc1OCCn1cnc2c1c(=O)n(C)c(=O)n2C` [CBK106816], 109%.
Regarding `CC(=O)NC[C@H]1CN(c2ccc(-c3nnc(C(C)O)s3)c(F)c2)C(=O)O1` (stereo partly drawn) [CBK017968], the viability at 28.5 h, 10 µM worked out at 99.6%.
Regarding `CN1CCN(S(=O)(=O)c2ccc(F)cc2)CC1` [CBK050491], the viability at 28.5 h, 10 µM was 88%.
Under `CC(=O)Nc1ccc(S(=O)(=O)N2CCN(c3ccc(C(F)(F)F)cc3[N+](=O)[O-])CC2)cc1` [CBK264293] stands 93.9%; under `O=C(O)CCc1c(-c2ccccc2)cc2ccccn12` [CBK266308], 109%.
In the case of `COc1ccc(C(C)C)cc1-c1cncc(NCCc2ccccn2)n1` [CBK065325], the viability at 28.5 h, 10 µM came to 94.9%.
With `CN(C)c1ncccc1CNC(=O)c1ccccn1` [CBK297774], the viability at 28.5 h, 10 µM came out at 81.5%.
`O=C(O)C(c1c[nH]c2ccccc12)N1CCN(S(=O)(=O)c2ccccc2)CC1` (stereo not drawn) [CBK286643]: the viability at 28.5 h, 10 µM amounted to 83.6%.
The result for `O=C1NN=C(Cc2ccccc2)C1c1ccccc1` (stereo not drawn) [CBK067757] reads 95.6%; that for `CN1CCCN(c2nccnc2-c2cccs2)CC1` [CBK088823], 98.5%.
Under `O=C(Nc1sc2c(c1C(=O)N1CCOCC1)CCCCC2)c1cccs1` [CBK307099] stands 105%; under `Cc1cc(CNC(=O)N2CCN(CCc3ccccc3)CC2)no1` [CBK158898], 92.7%; under `Cc1ccccc1-c1nnc2n1CCCN2` [CBK200089], 115%.
As for `O=c1[nH]nc2c3ccc(Cl)cc3ncn12` [CBK283988], the viability at 28.5 h, 10 µM was found to be 62.3%.
The result for `CC(C)[C@H](CO)Nc1nc(-c2ccc(F)c(Cl)c2)cnc1N` [CBK063949] reads 109%.
As for `Cc1ccc(NC2=N[C@H]3[C@@H](O)[C@H](O)C[C@H](C(=O)N4CCCCC4)[C@H]3S2)cc1` [CBK288951], the viability at 28.5 h, 10 µM was found to be 94.7%.
The result for `COc1ccnc(Cn2ncc(N3CCCC3)cc2=O)c1OC` [CBK306672] reads 82.7%; that for `Cc1n[nH]c(C)c1Sc1nnc(O)nc1O` [CBK027833], 87.2%.
Under `Cc1nc(C2CN(Cc3cc4ccccc4nc3Cl)CCO2)no1` (stereo not drawn) [CBK305381] stands 96.5%.
On to `COc1ccc(N2CCN(c3cncc(-c4cccnc4)n3)CC2)cc1OC` [CBK066086], for which the viability at 28.5 h, 10 µM came to 90.5%.
As for `Cc1ccc(N2C(=O)CC(Sc3ncccc3C(=O)O)C2=O)c(C)c1` (stereo not drawn) [CBK269377], the viability at 28.5 h, 10 µM amounted to 91.9%.
For `O=C(O)CC(c1ccncc1)c1c[nH]c2ccccc12` (stereo not drawn) [CBK286913], the viability at 28.5 h, 10 µM was 90.9%.
On to `Cc1ccnn1C(C)C(=O)NC(Cc1ccsc1)c1nccs1` (stereo not drawn) [CBK285141], for which the viability at 28.5 h, 10 µM was 92.1%.
For `Nc1ncc(-c2ccsc2)c2cccnc12` [CBK067580], the viability at 28.5 h, 10 µM came out at 97.5%.
With `CC(=O)c1ccc(-c2cc(Nc3ccc(O)cc3C)ncn2)s1` [CBK091052], the viability at 28.5 h, 10 µM is 115%.
For `OC(COc1ccc(F)cc1)CN1CCN(c2nc(-c3ccccc3)ns2)CC1` (stereo not drawn) [CBK074698], the viability at 28.5 h, 10 µM turned out to be 91.8%.
Regarding `CCCCn1ncnc1-c1cnc2ccnn2c1C` [CBK307305], the viability at 28.5 h, 10 µM was found to be 114%.
Regarding `CC(=O)N1CCc2c(sc(NC(=O)c3ccc(C)cc3)c2C#N)C1` [CBK304411], the viability at 28.5 h, 10 µM was determined as 52.6%.
Under `O=S(=O)(Nc1ccc(C(O)(C(F)(F)F)C(F)(F)F)cc1)c1ccccc1Br` [CBK062101] stands 96.3%.
Consider `CCC(=O)Nc1nc(-c2ccc(OC)cc2)cs1` [CBK070494], for which the viability at 28.5 h, 10 µM is 85.7%.
As to `CC(C)(C)CC(=O)N1C[C@@H]2C[C@H](C1)c1ccc(NS(=O)(=O)c3cccs3)c(=O)n1C2` [CBK288708], the viability at 28.5 h, 10 µM turned out to be 80.6%.
The result for `COc1ccc(-c2cncc(N[C@@H](CO)C(C)C)n2)cc1` [CBK037941] reads 82.8%.
The result for `N#Cc1ccc(N2C(=O)c3ccccc3S2(=O)=O)cc1` [CBK113195] reads 113%; that for `N#Cc1ccc(CSc2nnc(COc3ccccc3)n2Cc2ccco2)cc1` [CBK267539], 87.9%; that for `Cc1nc2c(c(=O)[nH]1)CN(C(=O)Cc1c(F)cccc1Cl)CC2` [CBK283589], 92.1%.
Under `CCOC(=O)C1(C2CCCCC2)CCN(C(=O)CCC(=O)O)CC1` [CBK136939] stands 95.9%; under `CSCCOc1cc(N2CCCC2)ncn1` [CBK115900], 90%; under `Cn1cnnc1Sc1cc(N2CCN(S(=O)(=O)c3ccc(Cl)c(Cl)c3)CC2)ccc1[N+](=O)[O-]` [CBK266618], 98.3%.
With `COc1nn(CC(=O)Nc2cccc(CCc3ccncc3)c2)c(=O)c2ccccc12` [CBK285560], the viability at 28.5 h, 10 µM is 94.5%.
As to `Cc1c(C(=O)Nc2ccc(OCc3ccccc3F)cc2)sc2nc[nH]c(=O)c12` [CBK285834], the viability at 28.5 h, 10 µM stood at 98.5%.
As to `COc1ccc(-c2nc(NC(=O)C3CCC(OC)CC3)cnc2-c2cccc(C)c2)cn1` (stereo not drawn) [CBK036813], the viability at 28.5 h, 10 µM stood at 109%.
Under `CNC(=O)C1(Cc2ccccc2-c2ccccc2)CCN(C(=O)Cc2cccc(C)c2)CC1` [CBK285594] stands 104%.
Under `Cc1ccccc1Cc1cccc(C2CCN(CC(=O)Nc3nccs3)CC2)n1` [CBK286089] stands 97.6%; under `O=C(Nc1ccccc1-c1ccccc1)C1CN(S(=O)(=O)c2ccccc2)CCN1S(=O)(=O)c1ccccc1` (stereo not drawn) [CBK265902], 91.1%.
On to `COc1ccc([N+](=O)[O-])c(N2CCOC3(CCN(C(=O)OCc4ccccc4)CC3)C2)n1` [CBK161117T], for which the viability at 28.5 h, 10 µM amounted to 103%.
As to `Cc1ccc(C2(C)CC(C)(C)N(C(=O)CSc3nnc[nH]3)c3ccccc32)cc1` (stereo not drawn) [CBK073918], the viability at 28.5 h, 10 µM was found to be 89.2%.
